Data published in patent US6737383B1, “Herbicidal oxadiazolidines” (priority 1999, dated 2004).

Experiments:
bamyardgrass = test: Test B flood test barnyardgrass; type: in vivo, Echinochloa crus-galli
Procedure, shortened: (§1)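 Flood test on plants grown to the 2-leaf stage; treated plants kept in greenhouse twelve to sixteen days, then visually rated against controls on a 0 (no effect) to 10 (complete control) scale.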

pigweed = test: Test B pre/postemergence pigweed; type: in vivo, Amaranthus retroflexus
Procedure, shortened: (§2)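 Response is a visual 0-to-10 score relative to untreated plants, where 0 means no effect and 10 means complete control, taken twelve to sixteen days after application. Treatments went onto soil at planting and onto foliage of 1- to 4-leaf plants, using a surfactant-containing non-phytotoxic solvent.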

sugar beet = test: Test B pre/postemergence sugar beet; type: in vivo, Beta vulgaris
Procedure, shortened: as §2

purple nutsedge = test: Test B pre/postemergence purple nutsedge; type: in vivo, Cyperus rotundus
Procedure, shortened: as §2

smallflower flatsedge = test: Test B flood test smallflower flatsedge; type: in vivo, Cyperus difformis
Procedure, shortened: as §1

soybean = test: Test B pre/postemergence soybean; type: in vivo, Glycine max
Procedure, shortened: as §2

velvetleaf = test: Test B pre/postemergence velvetleaf; type: in vivo, Abutilon theophrasti
Procedure, shortened: as §2

corn = test: Test B pre/postemergence corn; type: in vivo, Zea mays
Procedure, shortened: as §2

rape = test: Test B pre/postemergence rape; type: in vivo, Brassica napus
Procedure, shortened: as §2

morningglory = test: Test B pre/postemergence morningglory; type: in vivo, Ipomoea hederacea
Procedure, shortened: as §2

blackgrass = test: Test B pre/postemergence blackgrass; type: in vivo, Alopecurus myosuroides
Procedure, shortened: as §2

bedstraw = test: Test B pre/postemergence bedstraw; type: in vivo, Galium aparine
Procedure, shortened: as §2

rice = test: Test B flood test rice; type: in vivo, Oryza sativa
Procedure, shortened: as §1

cocklebur = test: Test B pre/postemergence cocklebur; type: in vivo, Xanthium strumarium
Procedure, shortened: as §2

wild oat = test: Test B pre/postemergence wild oat; type: in vivo, Avena fatua
Procedure, shortened: as §2

surinam grass = test: Test B pre/postemergence surinam grass; type: in vivo, Brachiaria decumbens
Procedure, shortened: as §2

[1] = Rate 62 g/ha, headed Pre-emergence (flood test species), scale 0 to 10 (0 no effect, 10 complete control)
[2] = Rate 125 g/ha, Pre-emergence, flood test species, scale 0 to 10 where 0 is no effect and 10 is complete control
[3] = Rate 250 g/ha, Pre-emergence, flood-test species, scale 0 to 10, 0 is no effect, 10 is complete control
[4] = Rate 500 g/ha, headed Pre-emergence (flood test species), scale 0 to 10 (0 no effect, 10 complete control)
[5] = Preemergence, Rate 62 g/ha, scale of 0 to 10 where 0 is no effect and 10 is complete control
[6] = Preemergence, Rate 125 g/ha, 0 is no effect, 10 is complete control
[7] = Preemergence, Rate 250 g/ha, scale 0 to 10, 0 is no effect, 10 is complete control
[8] = Preemergence, Rate 500 g/ha, scale of 0 to 10 where 0 is no effect and 10 is complete control
[9] = Rate 62 g/ha, Postemergence, scale of 0 to 10 where 0 is no effect and 10 is complete control
[10] = Rate 125 g/ha, Postemergence, scale 0 to 10
[11] = Rate 500 g/ha, Postemergence, scale 0 to 10

C=CCn1c(=O)on(C(=O)N(c2ccc(F)cc2)C2CCC2)c1=O [Compound 194]
Barnyardgrass plant response rating (bamyardgrass; [1]): 0 | Barnyardgrass plant response rating (bamyardgrass; [2]): 0 | Barnyardgrass plant response rating (bamyardgrass; [3]): 0 | Plant response rating, Barnyardgrass (bamyardgrass; [4]): 0 | Redroot pigweed plant response rating (pigweed; [5]): 5 | Redroot pigweed plant response rating (0 to 10 scale) (pigweed; [6]): 7 | Redroot pigweed plant response rating (pigweed; [7]): 8 | Plant response rating, Redroot pigweed (pigweed; [8]): 10 | Redroot pigweed plant response rating (pigweed; [9]): 0 | Redroot pigweed plant response rating (pigweed; [10]): 0 | Plant response rating (0 to 10; 0 is no effect, 10 is complete control), Redroot pigweed (pigweed; Rate 250 g/ha, Postemergence): 0 | Redroot pigweed plant response rating (pigweed; [11]): 0 | Sugarbeets plant response rating (sugar beet; [5]): 0 | Sugarbeets plant response rating (0 to 10 scale) (sugar beet; [6]): 0 | Sugarbeets plant response rating (sugar beet; [7]): 2 | Plant response rating, Sugarbeets (sugar beet; [8]): 3 | Sugarbeets plant response rating (sugar beet; [9]): 0 | Sugarbeets plant response rating (sugar beet; [10]): 0 | Plant response rating (0 to 10; 0 is no effect, 10 is complete control), Sugarbeets (sugar beet; Rate 250 g/ha, Postemergence): 0 | Sugarbeets plant response rating (sugar beet; [11]): 0 | Nutsedge plant response rating (purple nutsedge; [5]): 0 | Nutsedge plant response rating (purple nutsedge; [7]): 0 | Plant response rating, Nutsedge (purple nutsedge; [8]): 0 | Nutsedge plant response rating (purple nutsedge; [9]): 0 | Nutsedge plant response rating (purple nutsedge; [10]): 0 | Plant response rating (0 to 10; 0 is no effect, 10 is complete control), Nutsedge (purple nutsedge; Rate 250 g/ha, Postemergence): 0 | Nutsedge plant response rating (purple nutsedge; [11]): 0 | S. Flatsedge plant response rating (smallflower flatsedge; [1]): 0 | S. Flatsedge plant response rating (smallflower flatsedge; [2]): 0 | S. Flatsedge plant response rating (smallflower flatsedge; [3]): 0 | S. Flatsedge plant response rating (smallflower flatsedge; Rate 500 g/ha, Pre-emergence, flood test species, scale 0 to 10 (0 no effect, 10 complete control)): 0 | Soybean plant response rating (soybean; [5]): 0 | Soybean plant response rating (0 to 10 scale) (soybean; [6]): 0 | Soybean plant response rating (soybean; [7]): 0 | Plant response rating, Soybean (soybean; [8]): 0 | Soybean plant response rating (soybean; [9]): 0 | Soybean plant response rating (soybean; [10]): 0 | Plant response rating (0 to 10; 0 is no effect, 10 is complete control), Soybean (soybean; Rate 250 g/ha, Postemergence): 0 | Soybean plant response rating (soybean; [11]): 1 | Velvetleaf plant response rating (velvetleaf; [5]): 0 | Velvetleaf plant response rating (velvetleaf; [7]): 0 | Plant response rating, Velvetleaf (velvetleaf; [8]): 3 | Velvetleaf plant response rating (velvetleaf; [9]): 0 | Velvetleaf plant response rating (velvetleaf; [10]): 0 | Plant response rating (0 to 10; 0 is no effect, 10 is complete control), Velvetleaf (velvetleaf; Rate 250 g/ha, Postemergence): 0 | Corn plant response rating (corn; [5]): 0 | Corn plant response rating (0 to 10 scale) (corn; [6]): 0 | Corn plant response rating (corn; [7]): 0 | Plant response rating, Corn (corn; [8]): 0 | Corn plant response rating (corn; [9]): 0 | Corn plant response rating (corn; [10]): 0 | Plant response rating (0 to 10; 0 is no effect, 10 is complete control), Corn (corn; Rate 250 g/ha, Postemergence): 0 | Corn plant response rating (corn; [11]): 0 | Rape plant response rating (rape; [5]): 0 | Rape plant response rating (0 to 10 scale) (rape; [6]): 0 | Rape plant response rating (rape; [7]): 2 | Plant response rating, Rape (rape; [8]): 7 | Rape plant response rating (rape; [9]): 0 | Rape plant response rating (rape; [10]): 0 | Plant response rating (0 to 10; 0 is no effect, 10 is complete control), Rape (rape; Rate 250 g/ha, Postemergence): 0 | Rape plant response rating (rape; [11]): 2 | Morningglory plant response rating (morningglory; [5]): 0 | Morningglory plant response rating (0 to 10 scale) (morningglory; [6]): 0 | Morningglory plant response rating (morningglory; [7]): 0 | Plant response rating, Morningglory (morningglory; [8]): 0 | Morningglory plant response rating (morningglory; [9]): 0 | Morningglory plant response rating (morningglory; [10]): 0 | Plant response rating (0 to 10; 0 is no effect, 10 is complete control), Morningglory (morningglory; Rate 250 g/ha, Postemergence): 1 | Morningglory plant response rating (morningglory; [11]): 2 | Blackgrass plant response rating (blackgrass; [5]): 0 | Blackgrass plant response rating (0 to 10 scale) (blackgrass; [6]): 2 | Blackgrass plant response rating (blackgrass; [7]): 3 | Plant response rating, Blackgrass (blackgrass; [8]): 8 | Blackgrass plant response rating (blackgrass; [9]): 0 | Blackgrass plant response rating (blackgrass; [10]): 0 | Plant response rating (0 to 10; 0 is no effect, 10 is complete control), Blackgrass (blackgrass; Rate 250 g/ha, Postemergence): 2 | Blackgrass plant response rating (blackgrass; [11]): 3 | Bedstraw plant response rating (bedstraw; [5]): 0 | Bedstraw plant response rating (0 to 10 scale) (bedstraw; [6]): 0 | Bedstraw plant response rating (bedstraw; [7]): 0 | Plant response rating, Bedstraw (bedstraw; [8]): 10 | Bedstraw plant response rating (bedstraw; [9]): 0 | Bedstraw plant response rating (bedstraw; [10]): 0 | Plant response rating (0 to 10; 0 is no effect, 10 is complete control), Bedstraw (bedstraw; Rate 250 g/ha, Postemergence): 0 | Bedstraw plant response rating (bedstraw; [11]): 0 | Rice plant response rating (rice; [1]): 0 | Rice plant response rating (rice; [2]): 0 | Rice plant response rating (rice; [3]): 0 | Plant response rating, Rice (rice; [4]): 0 | Cocklebur plant response rating (cocklebur; [5]): 0 | Cocklebur plant response rating (0 to 10 scale) (cocklebur; [6]): 0 | Cocklebur plant response rating (cocklebur; [7]): 0 | Plant response rating, Cocklebur (cocklebur; [8]): 0 | Cocklebur plant response rating (cocklebur; [9]): 0 | Cocklebur plant response rating (cocklebur; [10]): 1 | Plant response rating (0 to 10; 0 is no effect, 10 is complete control), Cocklebur (cocklebur; Rate 250 g/ha, Postemergence): 2 | Cocklebur plant response rating (cocklebur; [11]): 2 | Wild oats plant response rating (wild oat; [5]): 0 | Wild oats plant response rating (wild oat; [7]): 3 | Plant response rating, Wild oats (wild oat; [8]): 8 | Wild oats plant response rating (wild oat; [9]): 0 | Wild oats plant response rating (wild oat; [10]): 0 | Plant response rating (0 to 10; 0 is no effect, 10 is complete control), Wild oats (wild oat; Rate 250 g/ha, Postemergence): 0 | B. signalgrass plant response rating (surinam grass; [5]): 0 | B. signalgrass plant response rating (0 to 10 scale) (surinam grass; [6]): 0 | B. signalgrass plant response rating (surinam grass; [7]): 0 | Plant response rating, B. signalgrass (surinam grass; [8]): 3 | B. signalgrass plant response rating (surinam grass; [9]): 0 | B. signalgrass plant response rating (surinam grass; Rate 125 g/ha, Postemergence, scale 0 (no effect) to 10 (complete control)): 0 | Plant response rating, B. signalgrass (surinam grass; Rate 250 g/ha, Postemergence, scale 0 to 10, 0 is no effect, 10 is complete control): 0 | B. signalgrass plant response rating (surinam grass; Rate 500 g/ha, Postemergence, scale 0 to 10, 0 no effect, 10 complete control): 3
